Measured values: patent US20230017266A1, “Cyclooxygenase-2 Inhibition for the Treatment of SAA-high Asthma” (THE USA, AS REPRESENTED BY THE SECRETARY, DEPT. OF HEALTH …, priority 2019, published 2023)

Experiments:
miR-155-5p = miR-155-5p levels in CD14+ monocytes cultured with HDL+SAA1 (qRT-PCR); format: cell-based, human; details: 24 h
Experimental: Quantitative RT-PCR (qRT-PCR). Total RNA was purified using the Direct-Zol™ RNA MiniPrep kit and total RNA (100 ng) was reverse transcribed into cDNA using the High-Capacity cDNA Reverse Transcription Kit (Applied Biosystems, Foster City, Calif.). Polymerase chain reactions (PCR) were performed on duplicate cDNA samples using TaqMan Universal PCR Master Mix, FAM-MGB dye-labeled Taqman® PTGS2 probe (Assay ID Hs00153133_m1, catalog #4331182), and a 7900 Real Time PCR System running Sequence Detector version 2.4 software, all from Applied Biosystems (Foster City, Calif.). […] For quantification of miR-155-5p expression, miRNA present in total RNA (10 ng) was converted to cDNA using the microRNA cDNA Reverse Transcription kit (Applied Biosystems, Foster City, Calif.). Polymerase chain reaction (PCR) was performed on duplicate cDNA samples using TaqMan Universal PCR Master Mix, Taqman® MicroRNA Assay for has-miR-155-5p (Assay ID #002623, catalog #4427975), and a 7900HT Fast Real-Time PCR System running Sequence Detector version 2.4 software (ThermoFisher Scientific, Waltham, Mass.). miR-155-5p expression was quantified relative to expression of U6 snRNA using the control sample as calibrator to calculate the difference in Ct values (ΔΔCt) and presented as relative mRNA expression.

THP-1 monocytes = experiment: Cytokine secretion by THP-1 monocytes stimulated with endogenous SAA-high HDL; format: cell-based, human; details: pre-treated 1 h; for ability of endogenous SAA-high HDL to induce cytokine secretion: SAA-high HDL 24 h
Experimental: HDL Isolation and Analysis. HDL was isolated from plasma by size-exclusion chromatography using two Superose 6 columns in series on an Akta FPLC system (GE Healthcare Life Sciences, Pittsburgh, Pa.), as previously described. FPLC fractions were assayed for cholesterol content (Cholesterol E, catalog #996021611, FUJIFILM Wako Diagnostics USA, Mountain View, Calif.) to identify HDL fractions, which were pooled and concentrated using a 10-kDa exclusion filter (Amicon Ultra Centrifuge Filters, Millipore, Darmstadt, Germany). The content of SAA in purified HDL was quantified using the human SAA ELISA kit, while APOA1 was quantified using the human APOA1 ELISA development kit (Mabtech, Nacka Strand, Sweden). THP-1 monocytes (American Type Culture Collection, Manassas, Va.) were treated with HDL from SAA-high asthmatics (n=16), as well as HDL from asthmatics with the lowest SAA levels (n=16), and the quantity of […], IL-6, TNF-α, and IL-10 secreted into culture medium over 24 h was assayed using Human DuoSet ELISA kits (R&D Systems, Minneapolis, Minn.) and data were acquired using a SpectraMax M2 spectrophotometer (Molecular Devices, San Jose, Calif.).
Stimulation of THP-1 monocytes with endogenous HDL from SAA-high asthmatics and suppression of cytokine secretion were further studied. HDL (4 μg of protein/ml) isolated from plasma from a SAA-high asthmatic (SAA-high HDL) and from a healthy non-asthmatic subject (Normal HDL) were used to stimulate THP-1 monocytes for 24 h. THP-1 monocytes were pre-treated with the FPR2 antagonist, WRW4 or water (40 μM) as the vehicle control, or A438079 or DMSO (10 μM) as the vehicle control, for 1 h prior to stimulation with normal or SAA-high HDL for 24 h. One-way ANOVA with Sidak's multiple comparisons test. ****P<0.0001.
HDL ([…] of protein/ml) isolated from plasma from a SAA-high asthmatic (SAA-high HDL) and from a healthy non-asthmatic subject (Normal HDL) were used to stimulate THP-1 monocytes for 24 h. THP-1 monocytes were pre-treated with BAY-11-7082 ([…] (1 μM) or DMSO (10 μM) as the vehicle control for 1 h, as indicated, prior to stimulation with normal or SAA-high HDL for 24 h. One-way ANOVA with Sidak's multiple comparisons test. ****P<0.0001.
HDL (4 μg of protein/ml) isolated from plasma from a SAA-high asthmatic (SAA-high HDL) and from a healthy non-asthmatic subject (Normal HDL) were used to stimulate THP-1 monocytes for 24 h. A. THP-1 monocytes were pre-treated with celecoxib or DMSO (0.01 μM) as the vehicle control for 1 h, as indicated, prior to stimulation with normal or SAA-high HDL for 24 h. One-way ANOVA with Sidak's multiple comparisons test. ****P<0.0001.

[1] = A438079 10 μM, SAA-high HDL 4 μg of protein/ml 24 h

NC(=O)Nc1sc(-c2ccc(F)cc2)cc1C(N)=O [TPCA1]
HDL+SAA1-mediated increases in miR-155-5p (miR-155-5p; TPCA-1 1 μM): attenuated | ability of endogenous SAA-high HDL to induce cytokine secretion (THP-1 monocytes; TPCA-1 1 μM): abrogate

Clc1cccc(-c2nnnn2Cc2cccnc2)c1Cl [A438079]
HDL+SAA1-mediated increases in miR-155-5p (miR-155-5p; A438079 10 μM): significantly reduced | IL-1β secretion induced by endogenous SAA-high HDL (THP-1 monocytes; [1]): inhibited | IL-6 secretion induced by endogenous SAA-high HDL (THP-1 monocytes; [1]): inhibited | TNF-α secretion induced by endogenous SAA-high HDL (THP-1 monocytes; [1]): inhibited

Cc1ccc(S(=O)(=O)/C=C/C#N)cc1 [BAY 11-7082]
HDL+SAA1-mediated increases in miR-155-5p (miR-155-5p; BAY-11-7082 10 μM): attenuated | ability of endogenous SAA-high HDL to induce cytokine secretion (THP-1 monocytes; BAY-11-7082 10 μM): abrogate
